Experimental data from PubChem BioAssay (NCI).
Several values for one entry are separate records, joined by “and”; a condition that tells them apart may be missing. Identical values can stand only once.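 Protocol summary: plate cells (96-well), add compound at 5 concentrations, incubate 48 h, interpolate endpoints linearly. Here, GI50 denotes the concentration required for 50% inhibition of growth. TGI marks complete inhibition of growth.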

How the values were obtained:
Experiment in all cases: inhibition of tumour cell growth, NCI panel, 48 h
OVCAR-3 ovarian = system: OVCAR-3 ovarian
A549 NSCLC = system: A549 NSCLC
UACC-62 melanoma = system: UACC-62 melanoma
OVCAR-4 ovarian = system: OVCAR-4 ovarian
T-47D breast = system: T-47D breast
HL-60(TB) leukemia = system: HL-60(TB) leukemia
KM12 colon = system: KM12 colon
NCI/ADR-RES ovarian = system: NCI/ADR-RES ovarian
IGROV1 ovarian = system: IGROV1 ovarian
CCRF-CEM leukemia = system: CCRF-CEM leukemia

Row | SMILES | TGI (OVCAR-3 ovarian) | TGI (A549 NSCLC) | TGI (UACC-62 melanoma) | TGI (OVCAR-4 ovarian) | TGI (T-47D breast) | TGI (HL-60(TB) leukemia) | TGI (KM12 colon) | TGI (NCI/ADR-RES ovarian) | TGI (IGROV1 ovarian) | TGI (CCRF-CEM leukemia) | GI50 (OVCAR-3 ovarian) | GI50 (A549 NSCLC) | GI50 (UACC-62 melanoma) | GI50 (OVCAR-4 ovarian) | GI50 (HL-60(TB) leukemia) | GI50 (NCI/ADR-RES ovarian) | GI50 (CCRF-CEM leukemia) | GI50 (IGROV1 ovarian) | GI50 (KM12 colon) | GI50 (T-47D breast)
1 | N#Cc1c(-c2ccc([N+](=O)[O-])cc2)c2c([nH]c1=O)-c1ccccc1CCC2 | > 100 µM | > 100 µM | > 100 µM | > 100 µM | 70.5 µM | > 100 µM | > 100 µM | > 100 µM | > 100 µM |  |  |  |  |  |  |  |  |  |  | 
2 | O=C1OC(c2ccc(O)cc2)(c2ccc(O)cc2)c2ccc(Cl)c3cccc1c23 (tested in a mixture with another compound) | > 75 µM | > 75 µM | 21.9 µM | 0.325 µM |  |  | 17.9 µM | 25.7 µM | 33.2 µM | 36.2 µM |  |  |  |  |  |  |  |  |  | 
3 | CC[C@@]1(O)CC(OC2CC(N3CCOCC3)C(O)C(C)O2)c2c(O)c3c(c(O)c2[C@H]1O)C(=O)c1cccc(O)c1C3=O (stereo partly drawn) | 2.73 µM and 1.63 µM | 0.6 µM | 0.428 µM and 0.301 µM | 1.55 µM and 2.88 µM | 3.35 µM | 0.431 µM and 0.36 µM | 3.59 µM and 1.68 µM | 1.55 µM and 4.61 µM | 2.9 µM and 5.99 µM |  | 0.176 µM | 0.000605 µM | 0.0389 µM | 0.199 µM | 0.000481 µM and < 0.0113 µM | 0.0133 µM | 0.000479 µM and < 0.0102 µM | 0.235 µM |  | 
4 | Cc1csc2nc(-c3cccc([N+](=O)[O-])c3)c(/C=N/N=C(N)N)n12 | 4.24 µM | 3.34 µM | 2.8 µM | 3.19 µM | 8.06 µM | 2.26 µM | 4.86 µM | 36.3 µM | 3.19 µM |  |  |  |  |  |  |  |  |  |  | 
5 | Cc1cc(C)c2c(=O)n(CC(O)CN(Cc3ccccc3)CC(O)Cn3sc4nc(C)cc(C)c4c3=O)sc2n1 (stereo not drawn) | 29.8 µM | 40.7 µM | 30.6 µM | 32.4 µM | 41 µM | > 100 µM | 31.4 µM | 67.2 µM | 31.7 µM | > 100 µM |  |  |  |  |  |  |  |  |  | 
6 | C[n+]1c2ccccc2c(N=[N+]=[N-])c2ccccc21 | > 10 µM | > 10 µM | > 10 µM | > 10 µM | > 10 µM | > 10 µM | > 10 µM | > 10 µM | > 10 µM | > 10 µM |  |  |  |  |  |  |  |  |  | 
7 | N#CC1(CCCI)CCCC1 | 31.1 µM | > 100 µM | 35.8 µM |  |  | 58.9 µM | > 100 µM |  | > 100 µM | > 100 µM |  |  |  |  |  |  |  |  |  | 
8 | O=C(/C=C/c1ccc([N+](=O)[O-])cc1)N1CCN(CCOC(c2ccc(F)cc2)c2ccc(F)cc2)CC1 | > 100 µM | > 100 µM | > 100 µM | > 100 µM | > 100 µM | > 100 µM | > 100 µM | > 100 µM | > 100 µM | > 100 µM |  |  |  |  |  |  |  |  |  | 
9 | Cc1[nH]c(C(=O)Nc2ccc(C(=O)NCCN)cc2OC(C)C)c(Cl)c1Cl |  |  | 3.08 µM |  |  |  | 3.21 µM | 22.6 µM |  | 5.17 µM |  |  | 1.7 µM |  |  | 4.32 µM | 2.13 µM |  | 1.74 µM | 
10 | c1ccc(CSC(SCc2ccccc2)c2cccc3ccccc23)cc1 |  | > 10 µM | > 10 µM | > 10 µM | > 10 µM | > 10 µM | > 10 µM | > 10 µM | > 10 µM | > 10 µM |  |  |  |  |  |  |  |  |  | 
11 | COc1ccccc1C#C/C=C\C#Cc1ccccc1C#N | 24.5 µM | > 100 µM | > 100 µM | > 100 µM | > 100 µM | > 100 µM | 55.6 µM | > 100 µM | 35.8 µM | > 100 µM |  |  |  |  |  |  |  |  |  | 
12 | CC(C)CCN(CCC(C)C)CC(=O)Nc1ccc(S(=O)(=O)c2ccc(NC(=O)CN(CCC(C)C)CCC(C)C)cc2)cc1 | 3.03 µM | 25.7 µM | 3.52 µM | 12.7 µM | 4.29 µM | 5.79 µM | 3.25 µM | > 100 µM | 4.5 µM | 3.87 µM | 1.41 µM | 5.38 µM | 1.55 µM | 2.56 µM | 2.22 µM | 2.93 µM | 1.06 µM | 1.64 µM | 1.62 µM | 1.4 µM
13 | Nc1ccc(Oc2ccc(C34CC5CC(C3)CC(c3ccc(Oc6ccc(N)cc6C(F)(F)F)cc3)(C5)C4)cc2)c(C(F)(F)F)c1 | 37.7 µM | 49 µM | 62.3 µM | > 100 µM | 64.5 µM | > 100 µM | 67.6 µM | 54.9 µM | 37.9 µM | > 100 µM |  |  |  |  |  |  |  |  |  | 
14 | CCOC(=O)C1=C(C(=O)OCC)SC2(S1)C(C(=O)OCC)=C(C(=O)OCC)Sc1c2ssc1=O | 3.16 µM | 5.38 µM | 3.68 µM | 2.68 µM | 4.62 µM | 1.06 µM | 10.3 µM | 7.64 µM | 2.57 µM | 2.06 µM |  |  |  |  |  |  |  |  |  | 
15 | O=C(O)c1cc2ccccc2c(N=Nc2ccc(S(=O)(=O)Nc3ccccn3)cc2)c1O | > 100 µM | > 100 µM | > 100 µM | > 100 µM | > 100 µM | > 100 µM | > 100 µM | > 100 µM | > 100 µM | > 100 µM |  |  |  |  |  |  |  |  |  | 
16 | Cc1c(-c2ccccc2)c(C#N)c2nnn(-c3ccc(Cl)cc3)c(=O)n12 | 52.2 µM | > 100 µM | > 100 µM | > 100 µM | 47.4 µM | > 100 µM | > 100 µM | > 100 µM | > 100 µM | > 100 µM |  |  |  |  |  |  |  |  |  | 
17 | NC1CCN(c2nc3ccccc3c3c2CCCC3)CC1 | 28.1 µM | 23.5 µM | 3.8 µM | 4.63 µM | 7.29 µM | 8.84 µM | 15.2 µM | 28.8 µM | 19.5 µM | 15.2 µM |  |  |  |  |  |  |  |  |  | 
18 | COC(=O)c1c(O)ccc2c1c1c(n2CCc2ccc(OC)c(OC)c2)C(=O)c2ccccc2C1=O | 40.6 µM | 47.2 µM | 32.9 µM | 35.6 µM | 31.9 µM | 59 µM | 25.6 µM | 31.7 µM | 29.9 µM | 45.2 µM |  |  |  |  |  |  |  |  |  | 
19 | O=C1N[C@H]2C(=O)c3c(Br)sc(Br)c3[C@H]2O1 | 17 µM | 40.4 µM | 26.7 µM | 31.3 µM | 55 µM |  | > 55.5 µM | 39 µM | 25.3 µM | 3.63 µM |  |  |  |  |  |  |  |  |  | 
20 | Cc1[nH]c2ncn3[nH]c(=S)nc3c2c1Cc1ccccc1 | > 100 µM | > 100 µM | > 100 µM | > 100 µM | > 100 µM | > 100 µM | > 100 µM | > 100 µM | > 100 µM | > 100 µM |  |  |  |  |  |  |  |  |  | 
21 | O=C1Nc2cccc(Cl)c2/C1=C\c1cccnc1 | 21.2 µM | 33.6 µM |  | 31.7 µM | 16.6 µM | > 100 µM | 25.9 µM | 15.9 µM |  | > 100 µM |  |  |  |  |  |  |  |  |  | 
22 | CC1(C)CN(CC(=O)O)CC(Cc2ccc(OCC(=O)O)cc2)N(CC(=O)O)CC(C)(C)SS1 (stereo not drawn) | > 100 µM | > 100 µM | > 100 µM | > 100 µM |  |  | > 100 µM | > 100 µM | > 100 µM |  |  |  |  |  |  |  |  |  |  | 
23 | COc1cc(/C=N/NC(=O)c2c(Cl)c(Cl)c(Cl)c(Cl)c2-c2nc3ccc(C(=O)c4ccccc4)cc3[nH]2)ccc1O | > 100 µM | > 100 µM |  | > 100 µM | > 100 µM | 61.1 µM | > 100 µM | 77 µM | > 100 µM | 81.6 µM |  |  |  |  |  |  |  |  |  | 
24 | O=C(CSCC(=O)N/N=C\c1ccc(F)cc1F)N/N=C\c1ccc(F)cc1F | > 100 µM | > 100 µM | > 100 µM | > 100 µM | > 100 µM | > 100 µM | > 100 µM | > 100 µM | > 100 µM | > 100 µM |  |  |  |  |  |  |  |  |  | 
25 | CC(C)CNC1=NCC(C)S1 (stereo not drawn) | > 100 µM | > 100 µM | > 100 µM |  | > 100 µM | > 100 µM | > 100 µM |  | > 100 µM | > 100 µM |  |  |  |  |  |  |  |  |  | 
26 | Cc1ncc(C(=O)Nc2ccc(CN3CCN(C)CC3)c(C(F)(F)F)c2)cc1C#Cc1cnc(N)c2ccc(C#N)cc12 | 8.09 µM |  | 0.0717 µM |  | > 100 µM | > 100 µM |  | 5.05 µM | 0.23 µM |  | 0.0949 µM |  | < 0.0108 µM |  | 0.4 µM | 1.81 µM |  |  |  | 0.114 µM
27 | c1ccc(/C(=N\Nc2nc3ccccc3[nH]2)c2ccccn2)cc1 | 2.99 µM | 22.1 µM | 6.23 µM | 4.99 µM | 27 µM |  | 17 µM | 0.842 µM | 1.31 µM | 0.891 µM |  |  |  |  |  |  |  |  |  | 
28 | C[C@]12CC[C@H]3[C@@H](CC=C4C[C@@H](O)CC[C@@]43C)[C@@H]1C/C(=C\c1ccncc1)[C@@H]2O | > 100 µM | 61.3 µM | 30.7 µM | 39.5 µM | 42.5 µM | 31 µM | 31.2 µM | 67.7 µM | 73.5 µM | 50.8 µM |  |  |  |  |  |  |  |  |  | 
